Test [1] deals with T1, hSNORF33 (Homo sapiens, UniProt Q96RJ0).
T1 sequence (Q96RJ0 1-339): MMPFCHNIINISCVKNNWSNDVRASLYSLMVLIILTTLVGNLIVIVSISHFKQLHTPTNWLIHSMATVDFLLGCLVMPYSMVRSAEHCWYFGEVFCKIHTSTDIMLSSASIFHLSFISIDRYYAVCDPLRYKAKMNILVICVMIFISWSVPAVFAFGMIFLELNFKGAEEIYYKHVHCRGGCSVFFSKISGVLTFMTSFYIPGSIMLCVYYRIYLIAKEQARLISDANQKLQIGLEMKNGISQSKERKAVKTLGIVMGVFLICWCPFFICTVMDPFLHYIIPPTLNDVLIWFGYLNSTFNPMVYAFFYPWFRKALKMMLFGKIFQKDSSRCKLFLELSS
Nature of the test: [3H]-TYR binding (saturation and displacement) to human SNORF33 COS-7 membranes. Further details: expressed in transfected cells; host or cells: COS-7 (membranes). The following applies: for Ki: human SNORF33 in transfected COS-7 membranes. On the procedure:
(§1) [^3H]-TYR and [^3H]-T binding assays were performed essentially as described by Mallard et al. (1992), with minor modifications. Radioligand binding assays were performed by diluting membranes prepared from cells expressing the receptor (with co-expression of the rat G-protein alpha S subunit for human SNORF33) in 25 mM Gly-Gly buffer (Sigma, pH=7.4 @ 0° C.) containing 5 mM ascorbate and 10 μM pargyline (final protein concentration in assay=100-300 μg/ml). Membranes were then incubated with either [^3H]-TYR (American Radiochemicals, specific activity 60 mCi/μmole) or [^3H]-T (Amersham, specific activity 98 mCi/μmole) in the presence or absence of competing ligands on ice for 30 min in a total volume of 250 μl in 96 well microtiter plates. The bound ligand was separated from free by filtration through GF/B filters presoaked in 0.5% polyethyleneimine (PEI), using Tomtec (Wallac) or Brandel Cell Harvester vacuum filtration device. After addition of Ready Safe (Beckman) scintillation fluid, bound radioactivity was quantitated using a Trilux (Wallac) scintillation counter (approximately 20% counting efficiency of bound counts). Data was fit to non-linear curves using GraphPad Prism.
(§2) In this manner, agonist or antagonist compounds that bind to the receptor may be identified as they inhibit the binding of the labeled ligand to the membrane protein of cells expressing the said receptor. Non-specific binding was defined as the amount of radioactivity remaining after incubation of membrane protein in the presence of 10 μM of the unlabeled amine corresponding to the radioligand used. In equilibrium saturation binding assays, membrane preparations or intact cells transfected with the receptor are incubated in the presence of increasing concentrations of the labeled compound to determine the binding affinity of the labeled ligand. The binding affinities of unlabeled compounds may be determined in equilibrium competition binding assays, using a fixed concentration of labeled compound in the presence of varying concentrations of the displacing ligands.

Test [2] has as its target T2, mouse SNORF33 (Mus musculus, UniProt Q923Y8).
T2 construct: expressed in transfected cells; host or cells: COS-7 (membranes)
In words: [3H]-TYR binding (saturation and displacement) to mouse SNORF33 COS-7 membranes. The following applies: mouse SNORF33, displacement of [3H]TYR. As for the experimental part: as §1, §2
(In general: In a radioligand displacement assay an active substance lowers the binding of a labelled ligand.)

For test [3], the target named is T3, rSNORF33 (Rattus norvegicus, UniProt Q923Y9). In words: [3H]-TYR binding (saturation and displacement) to rSNORF33-transfected COS-7 membranes. Further details: expressed in transfected cells; host or cells: COS-7 (transient). The following applies: rSNORF33 in transfected COS-7 membranes; 2–4 experiments; read-out: Mean Ki ± S.D.M., displacement of [3H]-tyramine. As for the experimental part:
as §1, with “Radioligand” for “[^3H]-TYR and [^3H]-T binding assays were performed essentially as described by Mallard et al. (1992), with minor modifications. Radioligand”
as §2

Test [4] has as its target T2, mouse SNORF33. In words: cAMP assay at mouse SNORF33. In kind it is cell-based. On the procedure: (§3) The receptor-mediated stimulation or inhibition of cyclic AMP (cAMP) formation may be assayed in cells expressing the mammalian receptors. Cells are plated in 96-well plates or other vessels and preincubated in a buffer such as HEPES buffered saline (NaCl (150 mM), CaCl2 (1 mM), KCl (5 mM), glucose (10 mM)) supplemented with a phosphodiesterase inhibitor such as 5 mM theophylline, with or without protease inhibitor cocktail (For example, a typical inhibitor cocktail contains 2 μg/ml aprotinin, […] leupeptin, and 10 μg/ml phosphoramidon.) for 20 min at 37° C., in 5% CO2. Test compounds are added with or without […] forskolin and incubated for an additional 10 min at 37° C. The medium is then aspirated and the reaction stopped by the addition of 100 mM HCl or other methods. The plates are stored at 4° C. for 15 min, and the cAMP content in the stopping solution is measured by radioimmunoassay. Radioactivity may be quantified using a gamma counter equipped with data reduction software. Specific modifications may be performed to optimize the assay for the receptor or to alter the detection method of cAMP.
(§4) COS-7 cells were transiently transfected with rSNORF33 gene using the calcium phosphate method and plated in 96-well plates. 48 hours after transfection, cells were washed twice with Dulbecco's phosphate buffered saline (PBS) supplemented with 10 mM HEPES, 10 mM glucose, 5 mM theophylline and 10 μM pargyline and were incubated in the same buffer for 20 min at 37° C., in […] 5% CO2. Test compounds were added and cells were incubated for an additional 10 min at 37° C. The medium was then aspirated and the reaction stopped by the addition of 100 mM HCl. The plates were stored at −20° C. for 2-5 days. For cAMP measurement, plates were thawed and the cAMP content in each well was measured by radioimmunoassay cAMP Scintillation Proximity Assay (Amersham Pharmacia Biotech). Radioactivity was quantified using microbeta Trilux counter (Wallac).
For orientation: Cyclic AMP is a second messenger, typically raised through Gs and lowered through Gi signalling.

The target of test [5] is T3, rSNORF33. In words: Intracellular cAMP release in rSNORF33-transfected COS-7 cells. The format is cell-based. Further details: expressed in transfected cells; host or cells: COS-7 (transient). As for the experimental part:
as §3, §4

For test [6], the target named is T1, hSNORF33. In words: Intracellular cAMP release in human SNORF33-transfected COS-7 cells. The format is cell-based. Further details: expressed in transfected cells; host or cells: COS-7 (transient). As for the experimental part:
as §3, §4

The mark [7] stands for this setting: read-out: Ki, displacement of [3H]-tyramine.

The results in this text go back to US7517658B2, “Methods for preparing compositions using a SNORF33 receptor” (H. Lundbeck A/S, priority 1999, dated 2009).

Where “and” joins values, the source holds several entries; their conditions need not be identical. Equal values may be shown once. Read-outs that look alike come from different tables or passages of the source.

T2 sequence (Q923Y8 whole entry): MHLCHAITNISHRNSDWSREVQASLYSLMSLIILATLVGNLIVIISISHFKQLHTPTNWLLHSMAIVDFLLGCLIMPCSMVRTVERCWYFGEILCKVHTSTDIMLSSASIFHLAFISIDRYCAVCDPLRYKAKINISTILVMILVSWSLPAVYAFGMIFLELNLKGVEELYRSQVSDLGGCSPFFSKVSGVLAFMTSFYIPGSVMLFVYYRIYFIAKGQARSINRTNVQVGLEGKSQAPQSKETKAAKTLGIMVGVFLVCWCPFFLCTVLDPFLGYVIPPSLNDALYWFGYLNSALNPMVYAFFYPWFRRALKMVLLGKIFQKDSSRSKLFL
T3 sequence (Q923Y9 whole entry): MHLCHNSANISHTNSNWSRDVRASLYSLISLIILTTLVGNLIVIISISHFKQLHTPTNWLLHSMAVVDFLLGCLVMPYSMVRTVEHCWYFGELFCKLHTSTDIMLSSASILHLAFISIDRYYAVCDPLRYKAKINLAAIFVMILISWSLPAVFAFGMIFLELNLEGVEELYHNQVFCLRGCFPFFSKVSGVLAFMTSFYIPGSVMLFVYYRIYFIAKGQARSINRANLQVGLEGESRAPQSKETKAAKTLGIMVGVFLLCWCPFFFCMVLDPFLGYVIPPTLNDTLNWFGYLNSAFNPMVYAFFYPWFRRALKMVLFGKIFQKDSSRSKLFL

With `Cl.Cl.Clc1cccc(N2CCNCC2)c1` [m-CPP, 1-(3-chlorophenyl)piperazine dihydrochloride], on hSNORF33 [1] (human SNORF33, up to 10 μM), the “Displacement of [3H]TYR binding” value is reported as “no displacement”. The Ki on hSNORF33 [1] (setting [7]) was above 10000 nM; at mouse SNORF33 [2] (n=2, read-out: Average Ki), 3550 nM; at rSNORF33 [3], 83 nM.
As for `C1CNCCN1` [piperazine], the Ki at hSNORF33 [1] (setting [7]) was above 10000 nM; on mouse SNORF33 [2] (n=2, read-out: Average Ki) it was 1950 nM; at rSNORF33 [3] it was 82 nM.
For the compound `NCCc1ccccc1` [β-Phenylethylamine (PEA), β-Phenylethylamine], the “Agonism in the cAMP assay” value on mouse SNORF33 [4] was “full agonists”. Also, the EC50 is 10 ± 1 nM at rSNORF33 [5] and 216 ± 149 nM on hSNORF33 [6]. For the same compound, the Ki on hSNORF33 [1] (read-out: Mean Ki ± S.D.M., displacement of [3H]-tyramine) is 8 ± 6 nM; at mouse SNORF33 [2] (read-out: Ki (individual determinations)), 19 nM and 47 nM; at rSNORF33 [3], 56 ± 21 nM.

What is called Ki is the dissociation constant of the complex between target and ligand, obtained from inhibition or displacement. The term EC50 denotes the concentration giving half of the maximal effect. High values mean a need for much substance, low ones an effect from little substance.
